Experimental data reported in PMC11597817, “Modulation of Multispecific Transporters by Uncaria tomentosa Extract and Its Major Phytoconstituents” (Pharmaceutics, 2024).

Tests used:
OAT2 = molecular target: T1, OAT2 (Homo sapiens, UniProt Q9Y694); test: Uptake inhibition assay, OAT2-overexpressing HEK293 cells; assay type: cell-based; conditions: at 100 µM
T1 construct: expressed in transfected cells; host or cells: HEK293 (lentiviral transduction; cDNA synthesised by GenScript)
Experimental: (§1) The human embryonic kidney 293 (HEK293) cell line was purchased from Invitrogen/ThermoFisher (Waltham, MA, USA). Madin–Darby canine kidney II (MDCKII) wild type cells were obtained from the European Collection of Authenticated Cell Cultures (ECACC catalog no. 00062107). […]
(§2) Plated cells were preincubated with a transport buffer (HBSS) containing 30 or 150 µg/mL of UT extract or 100 µM of isopteropodine, mitraphylline, or uncarine D for 15 min at an appropriate temperature. […] For radiolabeled substrates, accumulation was measured by liquid scintillation counting (MicroBeta Scintillation Counter, PerkinElmer).
(§3) The transporter-mediated uptake and ATP-dependent transport were determined by subtracting the activity of the control cell/transporter abundant-membrane in the presence of AMP from the activity of the transporter-overexpressing cell/transporter-abundant membrane in the presence of ATP. The relative transporter-specific accumulation was expressed as the percent of DMSO activity. […] Confidence intervals (CIs) of 95% were also determined. […]

OAT1 = molecular target: T2, OAT1 (Homo sapiens, UniProt Q4U2R8); test: Uptake inhibition assay, OAT1-overexpressing HEK293 cells; assay type: cell-based; conditions: at 100 µM
T2 construct: expressed in transfected cells; host or cells: HEK293 (lentiviral transduction; cDNA synthesised by GenScript)
T2 sequence (Q4U2R8 whole entry): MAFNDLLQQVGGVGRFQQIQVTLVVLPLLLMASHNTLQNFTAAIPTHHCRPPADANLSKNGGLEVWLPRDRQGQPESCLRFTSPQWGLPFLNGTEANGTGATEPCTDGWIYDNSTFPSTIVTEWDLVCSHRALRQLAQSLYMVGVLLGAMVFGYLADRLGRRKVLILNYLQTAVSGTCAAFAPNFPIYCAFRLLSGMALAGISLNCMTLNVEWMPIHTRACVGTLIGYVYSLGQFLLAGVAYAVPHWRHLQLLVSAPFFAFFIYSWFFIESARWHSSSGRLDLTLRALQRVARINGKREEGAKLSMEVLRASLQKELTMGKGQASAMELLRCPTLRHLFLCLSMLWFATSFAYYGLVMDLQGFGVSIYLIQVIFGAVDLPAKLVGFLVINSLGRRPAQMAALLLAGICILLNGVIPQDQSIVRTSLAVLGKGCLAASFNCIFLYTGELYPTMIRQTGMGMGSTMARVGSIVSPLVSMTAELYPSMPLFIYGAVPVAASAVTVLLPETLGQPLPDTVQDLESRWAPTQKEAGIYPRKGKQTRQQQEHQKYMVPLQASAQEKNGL
Experimental: as §1, §2, §3

HEK293-MDR1 = test: Antiproliferative MTT assay; assay type: cell-based, human; conditions: 30 μM pure natural product, 72 h
Experimental: For the determination of the antiproliferative properties of the prepared extract and selected alkaloids (isopteropodine, mitraphylline, and uncarine D), an MTT assay was applied on our HEK293 cell panel (see Table S4). […] All were maintained in a minimal essential medium completed with 10% fetal bovine serum, 1% non-essential amino acids, and 1% penicillin–streptomycin at 37 °C in a humidified atmosphere containing 5% CO2. All cell lines were purchased from the European Collection of Cell Cultures (Salisbury, UK), except for SiHa and C33A, which were from the American Tissue Culture Collection, LGC Standards GmbH (Wesel, Germany). Cell culture media and supplements were obtained from Lonza Group Ltd. (Basel, Switzerland). Cells were seeded into 96-well plates (C33A 10,000/well, all others 5000/well); after overnight incubation, the test substances were added and incubated for another 72 h under cell-culturing conditions. Uncaria tomentosa extract and the alkaloids were tested in the 1–90 μg/mL and 1–30 μM ranges, respectively. Finally, 20 μL of 5 mg/mL MTT solution was added to each well and incubated for 4 h; the medium was discarded, and the precipitated formazan crystals were dissolved in DMSO for 60 min with shaking. The absorbance was determined using a microplate reader (SPECTROstar Nano, BMG Labtech GmbH). […]

OCTN1 = molecular target: T3, OCTN1 (Homo sapiens, UniProt Q9H015); test: Uptake inhibition assay, OCTN1-overexpressing HEK293 cells; assay type: cell-based; conditions: in the presence of the alkaloid (100 µM, Figure 3)
T3 construct: expressed in transfected cells; host or cells: HEK293 (lentiviral transduction; cDNA synthesised by GenScript)
T3 sequence (Q9H015 whole entry): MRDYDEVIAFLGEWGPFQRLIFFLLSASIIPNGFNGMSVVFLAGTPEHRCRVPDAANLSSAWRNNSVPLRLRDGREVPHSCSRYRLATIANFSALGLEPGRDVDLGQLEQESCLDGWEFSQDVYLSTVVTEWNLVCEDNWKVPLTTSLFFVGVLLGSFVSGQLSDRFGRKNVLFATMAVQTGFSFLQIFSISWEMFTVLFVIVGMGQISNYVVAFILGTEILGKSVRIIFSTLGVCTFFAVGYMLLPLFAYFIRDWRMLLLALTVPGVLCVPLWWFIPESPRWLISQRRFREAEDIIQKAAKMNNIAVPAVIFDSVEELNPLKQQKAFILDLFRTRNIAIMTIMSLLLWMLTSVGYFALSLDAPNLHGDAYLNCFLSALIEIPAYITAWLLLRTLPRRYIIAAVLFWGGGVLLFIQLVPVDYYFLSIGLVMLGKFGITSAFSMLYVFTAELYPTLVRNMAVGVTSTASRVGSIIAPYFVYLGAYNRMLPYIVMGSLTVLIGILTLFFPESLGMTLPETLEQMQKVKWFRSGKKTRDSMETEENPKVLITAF
Experimental: as §1, §2, §3

MDR1 = conditions: MDR1-overexpressing MDCKII cells and Caco-2 cells; cited from earlier work

T1 sequence (Q9Y694 1-546 isoform Q9Y694-2): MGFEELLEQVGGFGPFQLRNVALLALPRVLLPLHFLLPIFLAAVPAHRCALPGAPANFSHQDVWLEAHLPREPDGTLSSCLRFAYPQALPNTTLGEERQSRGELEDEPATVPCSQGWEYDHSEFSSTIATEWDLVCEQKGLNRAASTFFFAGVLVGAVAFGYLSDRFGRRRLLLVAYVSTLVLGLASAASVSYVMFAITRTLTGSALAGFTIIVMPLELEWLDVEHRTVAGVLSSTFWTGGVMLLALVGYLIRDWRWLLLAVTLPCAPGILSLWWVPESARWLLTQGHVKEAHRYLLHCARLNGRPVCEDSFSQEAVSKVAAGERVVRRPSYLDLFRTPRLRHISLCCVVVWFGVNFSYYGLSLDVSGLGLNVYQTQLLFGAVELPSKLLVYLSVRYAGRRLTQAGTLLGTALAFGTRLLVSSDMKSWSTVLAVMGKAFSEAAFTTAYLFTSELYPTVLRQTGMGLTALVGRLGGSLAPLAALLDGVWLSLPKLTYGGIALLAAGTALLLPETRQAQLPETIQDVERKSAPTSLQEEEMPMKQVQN

Row | Structure (SMILES) | decrease of transporter-mediated transport (OAT2) | decrease of transporter-mediated transport (OAT1) | Cell growth inhibition at the highest concentration (% ± SEM) (HEK293-MDR1) [%] | transporter-mediated substrate accumulation (OCTN1) | MDR1 substrate status (MDR1)
1 | COC(=O)C1=CO[C@@H](C)[C@@H]2CN3CC[C@@]4(C(=O)Nc5ccccc54)[C@@H]3C[C@H]12 [isopteropodine] | around 50% | around 50% | < 20 | – | –
2 | COC(=O)C1=CO[C@@H](C)[C@H]2CN3CC[C@]4(C(=O)Nc5ccccc54)[C@@H]3C[C@H]12 [mitraphylline] | – | – | < 20 | below 50% | MDR1 substrate
